In US12017997B2, “Host-targeted pan-respiratory antiviral small molecule therapeutics” (priority 2021, dated 2024):
Where two headings read alike, the source gives them in different places.

Tests used:
[1] = Toxicity testing: cell viability, Alamar Blue HS; details: human, MRC-5 cells (uninfected)
[2] = tested on: recombinant Nipah virus expressing ZsGreen fluorescence protein (rNiV-ZsG); assay: microbe, parasite or virus in culture; details: Henipavirus nipahense, MRC5, 72 h, read-out: MRC-5 EC50
MRC-5 cells = assay: Toxicity testing: cell viability, Alamar Blue HS; details: read-out: MRC-5 CC50; uninfected MRC-5 cells, 72 hours post-compound treatment
[3] = tested on: recombinant Nipah virus expressing ZsGreen fluorescence protein (rNiV-ZsG); details: human

Row | SMILES | CC50 at 72 h [1] [µM] | EC50 [2] [µM] | CC50 (MRC-5 cells) [µM] | EC50 [3] [µM]
1 | COc1c(CNC(=O)c2cc(C3CC3)nn2C)cccc1OCc1ccc(C(=O)N2CCN(S(=O)(=O)CC(C)C)CC2C)cc1 (stereo not shown) [Compound 8] | > 5 | 0.194 | – | –
2 | COc1c(CNC(=O)c2cc(C3CC3)nn2C)cccc1OCc1ccc(C(=O)N2CCN(S(C)(=O)=O)CC2)cc1 [Compound 9] | > 5 | 0.508 | – | –
3 | CC(=O)N1CCN(Cc2ccc(COc3cccc(CNC(=O)c4cc(C5CC5)nn4C)c3F)cc2)CC1 [Compound 13] | > 5 | 0.628 | – | –
4 | COc1c(CNC(=O)c2cc(C3CC3)nn2C)cccc1OCc1ccc(CN2CCN(S(=O)(=O)CC(C)C)CC2)cc1 [Compound 17] | – | – | > 5 | 0.0297
5 | COc1c(CNC(=O)c2cc(C3CC3)nn2C)cccc1OCc1ccc(CN2CCCC2)cc1 [Compound 18] | > 5 | 0.124 | – | –
6 | COc1c(CNC(=O)c2cc(C3CC3)nn2C)cccc1OCc1ccc(CN2CCN(S(=O)(=O)CC(C)C)CC2)cc1 [Compound 19] | > 5 | – | – | 0.0146
7 | COc1c(CNC(=O)c2cc(C3CC3)nn2C)cccc1OCc1ccc(CN2CCN(C)CC2)cc1 [Compound 23] | > 5 | 0.324 | – | –
8 | Cn1nc(C2CC2)cc1C(=O)NCc1cccc(OCc2ccc(C(=O)N3CCN(S(C)(=O)=O)CC3)cc2)c1Cl [Compound 63] | > 5 | 6.82 | – | –
9 | Cn1nc(C2CC2)cc1C(=O)NCc1ccc(OCc2ccc(C(=O)N3CCN(S(C)(=O)=O)CC3)cc2)c(OC(F)(F)F)c1 [Compound 80] | > 5 | 1.44 | – | –
10 | COc1c(CNC(=O)c2cc(C3CC3)nn2C)cccc1OCc1cccc(CN2CCN(C(C)=O)CC2)c1 [Compound 88] | > 5 | 0.144 | – | –
11 | COc1c(CNC(=O)c2cc(C3CC3)nn2C)cccc1OCc1ccc(S(=O)(=O)N2CCN(S(C)(=O)=O)CC2)cc1 [Compound 91] | > 5 | 1.67 | – | –
12 | COc1c(CNC(=O)c2cc(C3CC3)nn2C)cccc1OCc1ccc(S(=O)(=O)N2CCN(C)CC2)cc1 [Compound 92] | > 5 | 16.7 | – | –
13 | COc1c(CNC(=O)c2cc(C3CC3)nn2C)cccc1OCc1ccc(C(=O)NC2CCN(S(C)(=O)=O)CC2)cc1 [Compound 94] | > 5 | 1.05 | – | –
14 | COc1c(CNC(=O)c2cc(C3CC3)nn2C)cccc1OCc1ccc(C(=O)N2CCC(N(C)S(C)(=O)=O)CC2)cc1 [Compound 96] | > 5 | 16.1 | – | –
15 | COc1c(CNC(=O)c2cc(C3CC3)nn2C)cccc1N(C)Cc1ccc(C(=O)N2CCN(S(C)(=O)=O)CC2)cc1 [Compound 113] | > 5 | 1.5 | – | –
16 | COc1c(CNC(=O)c2cc(C3CC3)nn2C)cccc1N1CCN(S(C)(=O)=O)CC1 [Compound 118] | > 5 | 3.85 | – | –
17 | Cc1c(CNCc2cc(C3CC3)nn2C)cccc1OCc1ccc(C(=O)N2CCN(S(C)(=O)=O)CC2)cc1 [Compound 127] | > 5 | 20 | – | –
18 | COc1c(CNC(=O)c2cc(C3CC3)nn2C)cccc1OCc1ccc(OC(=O)N2CCN(S(C)(=O)=O)CC2)cc1 [Compound 128] | > 5 | – | – | –
19 | COc1c(CNC(=O)c2cc(C3CC3)nn2C)cccc1Oc1ccc(C(=O)N2CCN(S(C)(=O)=O)CC2)nn1 [Compound 133] | > 5 | 6.32 | – | –
20 | COc1c(CNC(=O)c2cc(C3CC3)nn2C)cccc1OCc1ccc(COC(=O)N2CCN(S(=O)(=O)CC(C)C)CC2)cc1 [Compound 173] | > 5 | 0.0239 | – | –
21 | COc1c(CNC(=O)c2cc(C3CC3)nn2C)cccc1OCc1ccc(COC(=O)N2CCN(C(C)=O)CC2)cc1 [Compound 174] | > 5 | 0.129 | – | –
22 | CN1CCN(Cc2ccc(COc3ccc(CNC(=O)c4cc(C5CC5)nn4C)cc3Cl)cc2)CC1 [Compound 175] | > 5 | 0.2 | – | –
